# Laboratory results from ChEMBL document CHEMBL5042502, “Discovery of Potent and Selective 2-(Benzylthio)pyrimidine-based DCN1-UBC12 Inhibitors for Anticardiac Fibrotic Effects” (J Med Chem, 2022).
# Active and inactive are the calls of the source. The rule behind the calls is not given here.
# What was measured:
# [1] = test system: Fibroblast of cardiac tissue; experiment: Antifibrotic effect in SD rat cardiac fibroblast assessed as reduction in Ang II-induced collagen I upregulation preincubated for 2 hrs followed by Ang II-stimulation and further incubated for 24 hrs by western blot analysis (reference value: 71 %); type: functional; conditions: time 26 hrs
# Cardiac fibroblast [2] = experiment: Inhibition of intracellular DCN1 in Sprague-Dawley rat cardiac fibroblast measured between 42 to 62 degC at 10 uM incubated for 5 hrs by cellular thermal shift assay; type: cell-based
# [3] = test system: Fibroblast of cardiac tissue; experiment: Effect on Cul4B neddylation in mouse cardiac fibroblast at 1 uM preincubated for 2 hrs by Western blot analysis; type: functional, cell-based
# Cardiac fibroblast [4] = experiment: Inhibition of DCN1 in TGF-beta-treated Sprague-Dawley rat cardiac fibroblast assessed as inhibition of cell proliferation at 0.1 to 3 uM preincubated for 2 hrs followed by TGF-beta stimulation and further incubated for 24 hrs by MTT assay; type: cell-based; conditions: dose 0.1-3 µM, time 26.0 hrs
# [5] = Toxicity in 24 hr starved C57BL/6 mouse assessed as pathological change in lungs at 2 g/Kg administered via gavage measured after 2 weeks by H and E staining based histopathological analysis; conditions: in vivo, po, 2000 mg/kg
# Cardiac fibroblast [6] = experiment: Inhibition of DCN1 in Ang II-treated Sprague-Dawley rat cardiac fibroblast assessed as decrease in cell migration preincubated for 2 hrs followed by Ang-II stimulation and further incubated for 24 hrs by scratch wound healing assay based microscopy; conditions: Sprague-Dawle, time 26.0 hrs
# [7] = test system: Fibroblast of cardiac tissue; experiment: Inhibition of differentiation of Ang II-induced mouse cardiac fibroblast to myofibroblast assessed as decrease in alpha-SMA expression levels at 1 uM preincubated for 2 hrs followed by Ang-II stimulation and further incubated for 24 hrs by immunofluorescence assay; type: functional, cell-based; conditions: time 26.0 hrs
# [8] = Toxicity in 24 hr starved C57BL/6 mouse assessed as pathological change in spleen at 2 g/Kg administered via gavage measured after 2 weeks by H and E staining based histopathological analysis; type: tissue-based; conditions: in vivo, po, 2000 mg/kg
# [9] = Cytotoxicity against Sprague-Dawley rat cardiac fibroblast incubated for 24 hrs by MTT assay; type: toxicity, cell-based, Fibroblast of cardiac tissue; conditions: cardiac fibroblasts
# DCN1-like protein 1 [10] = molecular target: T1, DCN1-like protein 1 (Homo sapiens, UniProt Q96GG9)
# Target sequence in this assay (Q96GG9 whole entry, looked up): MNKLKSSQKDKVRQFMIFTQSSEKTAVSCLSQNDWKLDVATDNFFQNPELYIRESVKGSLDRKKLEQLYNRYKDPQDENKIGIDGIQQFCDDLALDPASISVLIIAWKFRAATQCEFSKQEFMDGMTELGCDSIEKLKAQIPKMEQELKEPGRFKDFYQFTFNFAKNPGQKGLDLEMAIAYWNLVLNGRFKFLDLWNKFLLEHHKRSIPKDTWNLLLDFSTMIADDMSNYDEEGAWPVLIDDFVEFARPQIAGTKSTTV
# Description: Binding affinity to DCN1 (unknown origin) assessed as Gibbs free energy change by MM-PBSA method
# [11] = Toxicity in 24 hr starved C57BL/6 mouse assessed as pathological change in liver at 2 g/Kg administered via gavage measured after 2 weeks by H and E staining based histopathological analysis; type: tissue-based; conditions: in vivo, po, 2000 mg/kg
# DCN1-like protein 1 [12] = molecular target: T1, DCN1-like protein 1; experiment: Binding affinity to DCN1 (unknown origin) assessed as inhibitory constant
# Target sequence in this assay (Q96GG9 whole entry): as the sequence (Q96GG9 whole entry, looked up) above
# [13] = test system: Fibroblast of cardiac tissue; experiment: Antifibrotic effect in SD rat cardiac fibroblast transfected with DCN1 siRNA assessed as effect on collagen I expression at 1 uM preincubated for 2 hrs followed by Ang II-stimulation and further incubated for 24 hrs by western blot analysis; type: functional, cell-based; conditions: time 26.0 hrs
# [14] = Toxicity in 24 hr starved C57BL/6 mouse assessed as change in cardiac function at 2 g/Kg administered via gavage measured after 2 weeks by echocardiography; conditions: in vivo, po, 2000 mg/kg
# [15] = test system: Fibroblast of cardiac tissue; experiment: Antifibrotic effect in SD rat cardiac fibroblast transfected with DCN1 siRNA assessed as effect on collagen III expression at 1 uM preincubated for 2 hrs followed by Ang II-stimulation and further incubated for 24 hrs by western blot analysis; type: functional, cell-based; conditions: time 26.0 hrs
# [16] = test system: Fibroblast of cardiac tissue; experiment: Effect on Ang II-induced in Cul2 neddylation in mouse cardiac fibroblast at 1 uM preincubated for 2 hrs followed by Ang-II stimulation and further incubated for 24 hrs by western blot analysis; type: functional, cell-based; conditions: time 26.0 hrs
# DCN1-like protein 2 = DCN1-like protein 2 (Homo sapiens, UniProt Q6PH85); experiment: Binding affinity to DCN2 (unknown origin) assessed as inhibitory constant
# Cardiac fibroblast [17] = experiment: Inhibition of DCN1 in Ang II-treated Sprague-Dawley rat cardiac fibroblast assessed as inhibition of cell proliferation preincubated for 2 hrs followed by Ang-II stimulation and further incubated for 24 hrs by MTT assay; type: cell-based; conditions: dose 0.1-3 µM, time 26.0 hrs
# DCN1-like protein 1 [18] = molecular target: T1, DCN1-like protein 1; remark: listed apart in the source
# Target sequence in this assay (Q96GG9 whole entry, looked up): as above
# Description: Binding affinity to DCN1 (unknown origin) assessed as change in entropy by MM-PBSA method
# DCN1-like protein 4 = molecular target: T2, DCN1-like protein 4 (Homo sapiens, UniProt Q92564); experiment: Binding affinity to DCN4 (unknown origin) assessed as inhibitory constant
# T2 sequence (Q92564 whole entry): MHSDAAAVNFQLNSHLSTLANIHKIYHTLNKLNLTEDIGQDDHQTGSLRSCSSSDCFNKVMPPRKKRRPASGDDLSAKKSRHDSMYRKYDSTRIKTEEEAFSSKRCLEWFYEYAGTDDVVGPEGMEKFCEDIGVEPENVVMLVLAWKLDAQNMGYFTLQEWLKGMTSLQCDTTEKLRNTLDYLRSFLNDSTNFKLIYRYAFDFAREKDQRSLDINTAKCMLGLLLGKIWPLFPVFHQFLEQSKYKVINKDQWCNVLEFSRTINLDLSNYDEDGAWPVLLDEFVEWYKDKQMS
# [19] = test system: Fibroblast of cardiac tissue; experiment: Effect on Cul1 neddylation in mouse cardiac fibroblast at 1 uM preincubated for 2 hrs by Western blot analysis; type: functional, cell-based
# DCN1-like protein 1 [20] = molecular target: T1, DCN1-like protein 1; experiment: Inhibition of GST-tagged DCN1 (unknown origin) using AcUBE2M1-21 incubated for 30 mins by HTRF assay
# Target sequence in this assay (Q96GG9 whole entry): as the sequence (Q96GG9 whole entry, looked up) above
# [21] = Cytotoxicity against Sprague-Dawley rat cardiac fibroblast by MTT assay; type: toxicity, cell-based, Fibroblast of cardiac tissue; conditions: cardiac fibroblasts
# [22] = test system: Fibroblast of cardiac tissue; experiment: Effect on Cul5 neddylation in mouse cardiac fibroblast at 1 uM preincubated for 2 hrs by Western blot analysis; type: functional, cell-based
# [23] = test system: Fibroblast of cardiac tissue; experiment: Effect on Ang II-induced in Cul1 neddylation in mouse cardiac fibroblast at 1 uM preincubated for 2 hrs followed by Ang-II stimulation and further incubated for 24 hrs by western blot analysis; type: functional, cell-based; conditions: time 26.0 hrs
# [24] = test system: Fibroblast of cardiac tissue; experiment: Effect on Cul4A neddylation in mouse cardiac fibroblast at 1 uM preincubated for 2 hrs by Western blot analysis; type: functional, cell-based
# [25] = test system: Fibroblast of cardiac tissue; experiment: Effect on Ang II-induced in Cul4A neddylation in mouse cardiac fibroblast at 1 uM preincubated for 2 hrs followed by Ang-II stimulation and further incubated for 24 hrs by western blot analysis; type: functional, cell-based; conditions: time 26.0 hrs
# [26] = Toxicity in 24 hr starved C57BL/6 mouse assessed as pathological change in kidney at 2 g/Kg administered via gavage measured after 2 weeks by H and E staining based histopathological analysis; type: tissue-based; conditions: in vivo, po, 2000 mg/kg
# [27] = test system: Fibroblast of cardiac tissue; experiment: Reversal of Ang II-induced increase in collagen I secretion in mouse cardiac fibroblast at 1 uM preincubated for 2 hrs followed by Ang-II stimulation and further incubated for 24 hrs by western blot analysis; type: functional, cell-based; conditions: time 26.0 hrs
# Cardiac fibroblast [28] = experiment: Inhibition of DCN1 in Sprague-Dawley rat cardiac fibroblast assessed as suppression in DCN1-UBC12 interaction by measuring reduction in UBC12 level at 10 uM incubated for 5 hrs co-incubated with DCN1 antibody by co-immunoprecipitation pull down assay; type: cell-based
# [29] = test system: Fibroblast of cardiac tissue; experiment: Reversal of Ang II-induced increase in collagen III secretion in mouse cardiac fibroblast at 1 uM preincubated for 2 hrs followed by Ang-II stimulation and further incubated for 24 hrs by western blot analysis; type: functional, cell-based; conditions: time 26.0 hrs
# [30] = test system: Fibroblast of cardiac tissue; experiment: Antifibrotic effect in SD rat cardiac fibroblast assessed as reduction in Ang II-induced activation of Nrf2 signaling pathway preincubated for 2 hrs followed by Ang II-stimulation and further incubated for 24 hrs by western blot analysis (reference value: 43 %); type: functional; conditions: time 26 hrs
# [31] = test system: Fibroblast of cardiac tissue; experiment: Effect on Cul2 neddylation in mouse cardiac fibroblast at 1 uM preincubated for 2 hrs by Western blot analysis; type: functional, cell-based
# Chain of DCN1-like protein 2 (Q6PH85 whole entry): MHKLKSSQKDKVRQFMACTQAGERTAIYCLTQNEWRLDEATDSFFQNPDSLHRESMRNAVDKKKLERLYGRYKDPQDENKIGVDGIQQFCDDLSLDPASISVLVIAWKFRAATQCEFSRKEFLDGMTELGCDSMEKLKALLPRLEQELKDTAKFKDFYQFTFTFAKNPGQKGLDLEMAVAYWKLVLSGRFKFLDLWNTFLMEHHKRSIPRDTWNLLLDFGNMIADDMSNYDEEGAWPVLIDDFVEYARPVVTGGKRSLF
smiles,measurement,setting,value
COc1cc(-c2nc(SCc3ccc(Cl)cc3)nc(Sc3nnnn3C)c2C#N)cc(OC)c1OC,inhibition (INH),[1],33%
same,inhibition,Cardiac fibroblast [2],Active
same,Activity,[3],Active
same,inhibition,Cardiac fibroblast [4],Dose-Dependent Effect
same,Activity,[5],Non-Toxic
same,inhibition,Cardiac fibroblast [6],Active
same,inhibition,[7],Active
same,Activity,[8],Non-Toxic
same,IC50 at 24 h,[9],27.3 µM
same,deltaG,DCN1-like protein 1 [10],-36.6 kJ/mol
same,Activity,[11],Non-Toxic
same,Ki,DCN1-like protein 1 [12],8.26 nM
same,inhibition,[13],inactive
same,Activity,[14],Non-Toxic
same,inhibition,[15],inactive
same,Activity,[16],Active
same,Ki,DCN1-like protein 2,18.8 µM
same,inhibition,Cardiac fibroblast [17],Active
same,-TdeltaS,DCN1-like protein 1 [18],11.2 kcal/mol
same,Ki,DCN1-like protein 4,22.4 µM
same,Activity,[19],Active
same,IC50,DCN1-like protein 1 [20],9.55 nM
same,IC50,[21],27.3 µM
same,Activity,[22],Active
same,Activity,[23],Active
same,Activity,[24],Active
same,Activity,[25],Active
same,Activity,[26],Non-Toxic
same,Activity,[27],Active
same,inhibition,Cardiac fibroblast [28],Active
same,Activity,[29],Active
same,inhibition (INH),[30],37%
same,Activity,[31],Active
